# Several values for one entry are separate records, joined by “and”; a condition that tells them apart may be missing. Equal entries are not always repeated. * marks the point of attachment. X1 = CC1(C)C(/C=C/C2=C(Cl)C(=C/C=C3/N(CCCCCC(=O)*)c4ccc5cc(S(=O)(=O)O)ccc5c4C3(C)C)/CCC2)=[N+](CCCS(=O)(=O)[O-])c2ccc(N(CCCS(=O)(=O)O)CCCS(=O)(=O)O)cc21; X2 = CC(C)(C)c1cc(/C=C/C=C2\N(CCCS(=O)(=O)O)c3ccc(S(=O)(=O)O)cc3C2(C)CCCC(=O)CCN2C(=O)CC(*)C2=O)c2ccc(N(CCCS(=O)(=O)[O-])CCCS(=O)(=O)O)cc2[o+]1
# Molecular target: T1, ADAMTS13 (Homo sapiens, UniProt Q76LX8)
# T1 sequence (Q76LX8 75-1427): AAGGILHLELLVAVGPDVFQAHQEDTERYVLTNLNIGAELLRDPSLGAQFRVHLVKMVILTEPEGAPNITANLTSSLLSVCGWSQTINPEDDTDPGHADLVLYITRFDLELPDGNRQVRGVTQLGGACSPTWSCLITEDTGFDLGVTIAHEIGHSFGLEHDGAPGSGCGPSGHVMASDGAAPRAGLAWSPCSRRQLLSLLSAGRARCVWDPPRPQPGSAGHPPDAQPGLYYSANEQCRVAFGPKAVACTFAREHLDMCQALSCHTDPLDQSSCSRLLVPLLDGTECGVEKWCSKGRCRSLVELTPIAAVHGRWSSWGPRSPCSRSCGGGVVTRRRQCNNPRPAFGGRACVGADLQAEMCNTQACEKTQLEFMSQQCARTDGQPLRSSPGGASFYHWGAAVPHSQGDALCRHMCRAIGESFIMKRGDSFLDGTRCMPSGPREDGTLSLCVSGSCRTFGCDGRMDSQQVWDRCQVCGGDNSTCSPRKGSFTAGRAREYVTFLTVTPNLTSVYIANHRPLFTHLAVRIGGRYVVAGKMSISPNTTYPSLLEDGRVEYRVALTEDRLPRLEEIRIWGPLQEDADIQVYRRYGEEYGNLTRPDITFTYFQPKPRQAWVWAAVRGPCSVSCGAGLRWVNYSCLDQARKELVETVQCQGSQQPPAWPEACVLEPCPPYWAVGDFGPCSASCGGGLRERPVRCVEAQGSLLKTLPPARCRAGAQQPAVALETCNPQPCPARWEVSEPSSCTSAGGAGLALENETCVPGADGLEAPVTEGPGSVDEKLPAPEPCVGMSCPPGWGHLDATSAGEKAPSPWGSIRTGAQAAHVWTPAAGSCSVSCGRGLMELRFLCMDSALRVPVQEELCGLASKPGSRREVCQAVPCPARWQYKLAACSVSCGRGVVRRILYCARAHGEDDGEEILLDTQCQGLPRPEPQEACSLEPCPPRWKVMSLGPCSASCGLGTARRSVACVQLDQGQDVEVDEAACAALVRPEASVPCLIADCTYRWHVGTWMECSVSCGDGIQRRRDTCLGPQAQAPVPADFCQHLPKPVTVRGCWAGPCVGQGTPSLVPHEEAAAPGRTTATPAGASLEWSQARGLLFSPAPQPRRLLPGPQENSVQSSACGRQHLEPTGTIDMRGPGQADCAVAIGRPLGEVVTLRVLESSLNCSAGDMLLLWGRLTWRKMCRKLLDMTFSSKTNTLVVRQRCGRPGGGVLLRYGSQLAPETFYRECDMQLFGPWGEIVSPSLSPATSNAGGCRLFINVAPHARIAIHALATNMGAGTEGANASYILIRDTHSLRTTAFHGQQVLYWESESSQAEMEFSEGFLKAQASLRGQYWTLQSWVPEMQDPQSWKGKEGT
# Experiment: Fluorogenic ADAMTS13 activity assay, signal and sensitivity compared between substrates
# Format: biochemical
# Design: from tissue; host or cells: human plasma (TTP patients, healthy controls)
# Procedure: In these experiments, the FRETS-rVWF71 substrate was utilized in a microtiter format (FIG. 2), which is compatible with fluorescence plate readers that are supported by laboratory equipment suppliers and available in many clinical hemostasis laboratories, such as the BIO-TEK FLx800 Fluorometer from DiaPharma (West Chester, Ohio) or Technoclone (Vienna). Reactions were performed in 200 μL 5 mM Bis-Tris, pH 6, 25 mM CaCl2, at room temperature with added plasma as shown (FIG. 2). Fluorescence was monitored in a Victor^2 V microplate reader (Perkin Elmer Life Sciences, Boston, Mass.) with 638 nm excitation filter and 658 nm emission filter.
# Using 1 μM substrate with varying amounts of plasma or serum and optimal filters for each substrate, ΔF/min for VWF-rFRETS71 is 8-fold greater compared to VWF-FRETS73. In addition, assays with VWF-rFRETS71 are linear with time and linear with enzyme up to >95% serum or plasma added, with no significant background fluorescence or interference from blood constituents. The combination of stronger fluorescence signal and compatibility with undiluted plasma make FRETS-rVWF71 ˜250-fold more sensitive than FRETS-VWF73.
# Assays were performed at 30° C. Samples (100 μL) of plasma or serum, diluted as necessary in assay buffer, were pipetted in duplicate in 96 well white microplates (Optiplate-96, PerkinElmer, Waltham, Mass.). Reaction was initiated by addition of 100 μL substrate in assay buffer. Cleavage of FRETS-rVWF71 was detected as an increase in fluorescence compared to control reactions without added enzyme at 2 min intervals using a Victor^2V Multilabel Counter (PerkinElmer, Waltham, Mass.) or Synergy H1 Hybrid Multi-Mode Microplate Reader (Biotek, Winooski, Vt.) equipped with 635±10 nm excitation and 660±10 nm emission filters. Initial velocities were determined by fitting progress curves to the polynomial ΔF=A+Bt+Ct^2, where ΔF is the change in fluorescence, t is time, A is the y-intercept, B is the initial velocity (slope), and the term Ct^2 accounts for any decline in velocity due to substrate consumption or photobleaching.
# ADAMTS13 assays with the FRETS-VWF73 substrate (Kokame, K., et al. Br. J. Haematol. 129:93-100, 2005) (Peptide International, Louisville, Ky.) were performed according to the manufacturer's instructions. Hemoglobin was prepared by hypotonic lysis of red blood cells from a voluntary donor and quantified with Drabkin's reagent (Sigma, St. Louis, Mo.).
# Results with FRETS-rVWF71 and FRETS-VWF73 assayed under standard conditions (Kokame, K., et al. Br. J. Haematol. 129:93-100, 2005) correlated well with an inter-assay CV of 3.8%. Using 1 μM substrate and 5 μL PNP, the change in fluorescence (ΔF/min) for FRETS-rVWF71 (50 mM HEPES, pH 7.4, 150 mM NaCl) was 8-fold greater than for FRETS-VWF73 (5 mM Bis-Tris, pH 6).
substance,measurement,setting,value
X1-GQAPNLVYMVTGC(X2)PASDEIRRLPGDIQVVPIGVGPNANVQELERIGWPNAPILIQDFETLPREAPDLVLQR [FRETS-rVWF71],change in fluorescence (ΔF/min) greater than for FRETS-VWF73,"1 μM substrate, 5 μL PNP, FRETS-rVWF71 in 50 mM HEPES pH 7.4, 150 mM NaCl, FRETS-VWF73 in 5 mM Bis-Tris pH 6",8 fold
same,ΔF/min greater compared to FRETS-VWF73,"1 μM substrate, varying amounts of plasma or serum, optimal filters for each substrate",8 fold
same,assay sensitivity relative to FRETS-VWF73,equal concentrations of plasma as the enzyme source,approximately 8 fold
same,overall sensitivity relative to FRETS-VWF73,stronger fluorescence signal combined with undiluted plasma,~250 fold and 240 fold
same,further increase of sensitivity relative to FRETS-VWF73,use in undiluted plasma,30 fold
